Among the data in ChEMBL document CHEMBL1157539, “Thousands of chemical starting points for antimalarial lead identification” (Nature, 2010) are XC50 values, retold here.

This assay relates to Plasmodium falciparum. Description: GSK_TCMDC: Inhibition of Plasmodium falciparum 3D7 in whole erythrocytes, using parasite LDH activity as an index of growth. The assay is classed as functional, organism-based. As to conditions: Plasmodium falciparum, 3D7.
As to `O=C(/C=C/c1ccc(Cl)cc1)NCCCCCN1CCC(c2c[nH]c3ccccc23)CC1`, the XC50 was determined as 838 nM.
The result for `COc1ccc(CCNCCCCCCNCCc2ccccc2Cl)cc1OC` reads 657 nM.
The result for `O=C(Nc1cccc(OC2CCN(Cc3ccccc3)CC2)c1)c1ccc([N+](=O)[O-])cc1` reads 661 nM.
Take `O=C(NCCCCN1CCC(c2ccc3c(c2OCc2ccccn2)CCCC3)CC1)c1ccc(NC(=O)c2ccc(Cl)cc2)cc1`: the XC50 came to 803 nM.
The figure for `CCN(CC)CCCCOc1ccc2c(c1)C(=O)c1cc(OCCCCN(CC)CC)ccc1-2` is 759 nM; for `CS(=O)(=O)c1ccc(-c2cc(C(F)(F)F)nc(N[C@@H]3CCCC[C@H]3OCc3ccccc3)n2)cc1` it is 60.4 nM.
In turn, `O=C(/C=C/c1ccc([N+](=O)[O-])cc1)N1CCC(NS(=O)(=O)c2ccc(F)cc2)CC1` registered an XC50 of 824 nM.
The compound `O=C(Nc1ccc(-c2nc3ccccc3[nH]2)cc1)c1cccc(S(=O)(=O)N2CCOCC2)c1` came in with an XC50 of 902 nM.
In the case of `NC1=NC(c2ccccc2)(c2ccccc2)C(=O)N1Cc1ccc(-c2ccncc2)cc1`, the XC50 amounted to 772 nM.
`COc1ccc2nc3cc(Cl)ccc3c(Nc3ccc(Oc4ccc(Nc5c6ccc(Cl)cc6nc6ccc(OC)cc56)cc4)cc3)c2c1`: the XC50 came out at 859 nM.
The result for `Cc1cc2nc(-c3ccc(C(=O)NCc4cccc(C(F)(F)F)c4)cc3)[nH]c2cc1C` reads 807 nM.
`COc1ccc(NC(=O)NC2CCN(CCCOc3ccnc4cc(Cl)ccc34)C2)cc1OC` (configuration not stated) yielded an XC50 of 792 nM.
The result for `CC(C)NCc1cccc(-c2ccc(-c3nc4cc(C(F)(F)F)ccc4[nH]3)cc2)c1` reads 193 nM; that for `O=C(Nc1ccc(-c2nc3ccc(NC(=O)c4ccc(Br)cc4)cc3[nH]2)cc1)c1ccc(Br)cc1`, 786 nM; that for `CS(=O)(=O)NCCCNCc1cccc(-c2cccc(-c3nc4cc(C(F)(F)F)ccc4[nH]3)c2)c1`, 467 nM.
With `Cc1ccc(C(=O)Nc2ccc(F)c(F)c2F)cc1S(=O)(=O)N1CCCCC1`, the XC50 stood at 763 nM.
With `CC(C)S(=O)(=O)N1CCN(Cc2ccc3c(c2)nc(NC(=O)c2ccsc2)n3C[C@H](O)c2ccccc2)CC1`, the XC50 was determined as 271 nM.
`NS(=O)(=O)NCCCN1CCN(c2ccccc2)CC1` showed an XC50 of 977 nM.
The figure for `CCn1c(-c2nonc2N)nc2c(-c3cccc(NC(=O)Nc4cccc(Cl)c4)c3)ncc(OCCCN)c21` is 941 nM.
The result for `Cc1nc(-c2cccc(Nc3nccc(NCC(O)c4cccc(F)c4)n3)c2)cs1` (configuration not stated) reads 699 nM.
In the case of `COc1ccc(CCNCCCCCNCCCc2ccc(Cl)cc2)cc1OC`, the XC50 is 808 nM.
Compound `CC[C@H]1CN2CC[C@@H]1C[C@H]2[C@H](O)c1ccnc2ccc(OC)cc12` registered an XC50 of 225 nM.
Compound `Cc1cc(C(=O)Nc2ccc3c(c2)CCN3C2CCN(Cc3ccc(O)cc3)C2)no1` (configuration not stated) showed an XC50 of 774 nM.
Take `Fc1ccc(CNc2ccc3ncc(-c4cccnc4)n3n2)cc1`: the XC50 is 928 nM.
The result for `COc1cc2c(OC)cccc2cc1CNCCCCCCNCc1cc2cccc(OC)c2cc1OC` reads 823 nM; that for `COc1ccc(-c2cnc3ccc(NCc4ccc(S(N)(=O)=O)cc4)nn23)cc1`, 796 nM; that for `O=C(C=Cc1ccc(Cl)c(Cl)c1)NCCCCCN1CCCC(CCCNC(=O)/C=C/c2ccccc2)C1` (configuration not stated), 593 nM.
The figure for `C[C@H](N[C@H]1CCCc2c1[nH]c1ccc(Br)cc21)c1ccccc1` is 222 nM; for `Oc1ccc(Cc2cc(Oc3c(I)cc(CCc4ncc[nH]4)cc3I)ccc2O)cc1` it is 712 nM.
Turning to `O=C(Nc1ccc2c(c1)OCO2)NC1CCN(c2ccnc(Nc3ccc(F)cc3)n2)C1` (configuration not stated), the XC50 amounted to 743 nM.
As for `Cc1ccc(C(=O)Nc2ccc(Cl)c(N3CCN(CCc4ccccc4)CC3)c2)cc1`, the XC50 is 926 nM.
`O=C(NC1CCN(Cc2ccccc2O)C1)c1ccc(Cl)c(Cl)c1` (configuration not stated) showed an XC50 of 894 nM.
`COc1cc2ccccc2c(CON2C(=N)N=C(N)NC2(C)C)c1OC` yielded an XC50 of 46.4 nM.
As to `CCCCCN1CCCC1CNS(=O)(=O)c1ccc(C(=O)Nc2cccc(C(F)(F)F)c2)cc1` (configuration not stated), the XC50 came to 1060 nM.
The result for `COc1ccc(Nc2ncc3c(-c4cccc(NC(=O)Cc5cccc(F)c5)c4)c[nH]c3n2)cc1OC` reads 567 nM; that for `CC(C)n1ncc2c(C(=O)Nc3ccc(C#N)c(Cl)c3)cc(C3CC3)nc21`, 962 nM.
The figure for `O=C(Nc1ccc(F)cc1)c1nc2ccccc2nc1Cl` is 1230 nM; for `CCCn1c(Sc2ccc(C#N)c([N+](=O)[O-])c2)nnc1-c1ccc(OC)cc1` it is 865 nM.
The compound `O=C(CC1CCCC1)N(CC1CCN(Cc2ccc(C(F)(F)F)cc2)CC1)c1ccc(N2CCOCC2)c(F)c1` displayed an XC50 of 432 nM.
For the compound `CN(C)c1ccc(NC(=O)Nc2ccnc3ccc(Br)cc23)cc1`, the XC50 stood at 872 nM.
As to `Cc1cc2ncn(-c3nccc(NCc4ccc(F)c(C)c4)n3)c2cc1C`, the XC50 is 990 nM.
The result for `CCc1cn2c3c(cc(C(=O)N[C@@H](Cc4cccc(Cl)c4)[C@H](O)CNC4CC4)cc13)N(C)S(=O)(=O)CC2` reads 145 nM; that for `COc1ccc2ccc(F)c(CC(=O)N3CCOC(CNCc4cccc(-c5ccc(F)cc5)n4)C3)c2n1` (configuration not stated), 1010 nM.
The result for `CCCN1CCN(c2cc(S(=O)(=O)Nc3ccc(C(=O)NCc4cccc(C(F)(F)F)c4)cc3)ccc2OC)CC1` reads 1010 nM; that for `O=c1cc(NCCCNCc2cccc3c2OC(F)(F)O3)[nH]c2ccccc12`, 947 nM; that for `NC(=O)C1CCN(Cc2ccc(-c3ccc(-c4nc5cc(C(F)(F)F)ccc5[nH]4)cc3)cc2)CC1`, 680 nM.
`C=CCN(c1ccc(OC)cc1)S(=O)(=O)c1ccc(Cl)c(C(=O)Nc2cccc(C#N)c2)c1` showed an XC50 of 577 nM.
For the compound `CCNc1cc(C(=O)N[C@@H](Cc2ccccc2)[C@H](O)CNC2CCC(C(C)(C)C)CC2)cc(N2CCCC2=O)c1` (some centres not stated), the XC50 worked out at 444 nM.
`Cc1ccc(CCC(C)NCC(O)c2cccc(C(F)(F)F)c2)cc1` (configuration not stated) displayed an XC50 of 561 nM.
`Cc1ccc(N2C(N)=NC(N)=NC2c2ccccc2)cc1` (configuration not stated) came in with an XC50 of 56.6 nM.
`Cn1nc(C(F)(F)F)c(-c2ccc(F)cc2)c1NC(=O)Nc1ccc(F)cc1` came in with an XC50 of 754 nM.
`Cc1cc(=NN=Cc2ccc(F)cc2)c2cc(F)ccc2[nH]1` came in with an XC50 of 644 nM.
The result for `CCN(CCNC(=O)Cn1c(C)cc2cc([N+](=O)[O-])ccc21)c1cccc(C)c1` reads 1010 nM; that for `CC[C@H](NC(=O)c1c(CN2CCC(N3CCCCC3)CC2)c(-c2ccccc2)nc2cc(O)ccc12)c1ccccc1`, 1370 nM; that for `O=S1(=O)C=C(c2ccccc2)CC1`, 205 nM.
On to `COC(=O)c1ccccc1COc1ccc(CC2(NC(=O)[C@H](Nc3ccc(C#N)c4ccccc34)C(C)(C)C)CCCC2)cc1`, for which the XC50 is 856 nM.
The result for `NC1=NC(c2ccccc2)(c2ccccn2)C(=O)N1CCCc1ccccc1` (configuration not stated) reads 1040 nM; that for `Cc1c(CNCCCNc2nc3ccccc3[nH]2)sc(C(F)F)c1Br`, 293 nM.
In turn, `COc1cccc(CN2CCN(C(c3ccccc3)c3ccccc3)CC2)c1O` registered an XC50 of 781 nM.
The figure for `Cn1cncc1C(=O)Nc1cccc(-c2ccc(-c3nc4cc(F)ccc4[nH]3)cc2)c1` is 735 nM.
The compound `COc1ccc2nccc(NC(=O)C3CCC(NCc4ccc5c(c4)NC(=O)CS5)CC3)c2c1` (configuration not stated) returned an XC50 of 586 nM.
The figure for `O=C(Nc1ccccc1N1CCOCC1)c1ncoc1-c1ccccc1C(F)(F)F` is 1060 nM.
